Assay results published in patent US9127024B2 (Intrexon Corporation, priority 2013, dated 2015).
Read-outs that look alike come from different tables or passages of the source.

Target: RheoSwitch® (CHO-K1_RS-1 cells, firefly Luciferase reporter) (Choristoneura fumiferana, UniProt O77240)
Test: in vitro gene switch assay (fLUC Luciferase expression, potency screen)
Assay type: cell-based
Description: Gene switch assays are disclosed, e.g., in U.S. Pat. Nos. 8,076,517; 7,456,315; 7,304,161; and 6,258,603.
CHO-K1 cells were stably transfected with a plasmid (RS-1, FIG. 1) coding for firefly Luciferase (fLUC) under the control of the RheoSwitch® resulting in the stable cell line CHO-K1_RS-1. A master cell bank was created containing approximately 100 vials at 5×10^6 cells per vial. One vial of CHO-K1_RS-1 was thawed and cultured for two weeks prior to each in vitro potency screening.
Twenty-four (24) hours prior to treatment with the control and test compounds the CHO-K1_RS-1 cells were seeded into white-opaque 384-well cell culture plates at 3,600 cells per well in 30 μl of culture medium. The cells were incubated in a humidified CO2 incubator at 37° C. until compound treatment.
Compounds were prepared at 25 mM in 100% dry DMSO and stored at room temperature in sealed 1 ml tubes prior to subsequent dilution and assay. On the day of cell treatment the tubes containing the control and test compounds were sorted and the ligands transferred to a 96-well polypropylene plate for subsequent dilution. The compounds were diluted in 100% dry DMSO in an 8-point, 10-fold dilution series ranging from 25 mM to 2.5 nM using the Biomek FX automated liquid handler.
The diluted compounds were then transferred to each well of 384-well polypropylene plate in quadruplicate resulting in a single 384-well plate with four replicates of each compound dilution in a different quadrant of the plate. Each well on the 384-well plate received 20 μl of diluted compound. The 384-well plates containing diluted compound and the plates containing cells in culture were loaded onto the Biomek FX and 30 nl of compound was delivered to each well containing cells using a 384-pin V&P Scientific Pin Tool. The resulting 1000-fold dilution (30 nl to 30 μl) generated a final dosing range of 25 μM to 2.5 pM in 0.1% DMSO. Two replicate plates were produced to supply a dedicated plate for the Luciferase expression assay and the APH cell viability assay.
The cells were incubated with the compound for 24 hours in a humidified CO2 incubator at 37° C. Following incubation, the cells were assayed for Luciferase expression (fLUC assay) using the Steady Glo assay from Promega. Cells were equilibrated to room temperature for 15 minutes prior to reagent addition. Thirty micro liters (30 μl) of assay reagent was added to each well of the 384-well plate using the Biomek FX. The reagent was incubated with the cells for 10-120 minutes prior to reading on a Molecular Devices Spectramax L luminometer. The assay reagents were prepared as per the manufacturer's instructions.
The Luciferase expression data was normalized to the baseline signal from cells treated with DMSO alone. The ratio of signal from treated cells to vehicle-treated cells was plotted and non-linear regress was performed using Graph Pad Prism software. EC50, (log)EC50 and Hill slope data was generated. Reporter gene expression, e.g., luciferase expression, serves as a proxy for the expression of a gene of interest. See, e.g., US 2009/0123441 and WO 2011/119773.

[1] = read-out: fLUC assay EC50, 24 hours with compound, 25 μM to 2.5 pM, figure in parentheses after a value not defined
[2] = read-out: fLUC assay EC50 Run 1, 24 hours with compound, Run 1
[3] = read-out: fLUC assay EC50 Run 2, 24 hours with compound, Run 2

Chain of RheoSwitch® (CHO-K1_RS-1 cells, firefly Luciferase reporter) (O77240 1-513): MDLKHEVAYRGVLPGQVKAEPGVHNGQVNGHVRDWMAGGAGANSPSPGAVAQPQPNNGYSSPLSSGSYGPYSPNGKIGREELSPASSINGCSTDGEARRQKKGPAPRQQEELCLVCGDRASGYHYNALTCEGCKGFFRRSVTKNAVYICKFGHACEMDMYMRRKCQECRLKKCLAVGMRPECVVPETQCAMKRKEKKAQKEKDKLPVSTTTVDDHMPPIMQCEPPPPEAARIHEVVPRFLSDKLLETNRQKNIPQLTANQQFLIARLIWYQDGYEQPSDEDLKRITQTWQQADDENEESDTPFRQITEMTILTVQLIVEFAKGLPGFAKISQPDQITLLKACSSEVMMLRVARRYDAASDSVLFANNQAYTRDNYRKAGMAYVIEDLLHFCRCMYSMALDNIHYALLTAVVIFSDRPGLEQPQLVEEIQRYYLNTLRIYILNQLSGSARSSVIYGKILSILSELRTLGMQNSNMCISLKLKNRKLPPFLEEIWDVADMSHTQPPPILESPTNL

| SMILES | EC50 [1] [nM] | EC50 [2] [nM] | EC50 [3] [nM] |
| --- | --- | --- | --- |
| [2H]C([2H])([2H])c1cc(C(=O)N(NC(=O)c2ccc3c(c2C)OCCOB3O)[C@@H](CC)C(C)(C)C)cc(C([2H])([2H])[2H])c1 [compound 81] | 564 | – | – |
| [2H]C([2H])([2H])c1cc(C(=O)N(NC(=O)c2ccc3c(c2C)OCCOB3O)C(C)(C)CC)cc(C([2H])([2H])[2H])c1 [compound 77] | 181 | – | – |
| COCc1ccc(C(=O)NN(C(=O)c2cc(C)cc(C)c2)C(C)(C)C)c(F)c1B(O)O [Cpd. No. 88, (3-(2-(tert-butyl)-2-(3,5-dimethylbenzoyl)hydrazine-1-carbonyl)-2-fluoro-6-(methoxymethyl)phenyl)boronic acid] | – | 667 | 840 |
| CCCC(N(NC(=O)c1cccc(B2OC(C)(C)C(C)(C)O2)c1C)C(=O)c1cc(C)cc(C)c1)C(C)(C)C (racemic) [compound 44] | 250 | – | – |
| CC[C@H](N(NC(=O)c1ccc2c(c1C)OCCOB2O)C(=O)c1cc(C)cc(C)c1)C(C)(C)C [compound 80] | 867 | – | – |
| Cc1cc(C)cc(C(=O)N(NC(=O)c2ccc3c(c2F)COB3O)C(c2ccccc2)C(C)(C)C)c1 (stereo not shown) [Cpd. No. 89, N′-(2,2-dimethyl-1-phenylpropyl)-N′-(3,5-dimethylbenzoyl)-4-fluoro-1-hydroxy-1,3-dihydrobenzo[c][1,2]oxaborole-5-carbohydrazide] | – | ~362 | ~303 |
| Cc1cc(C)cc(C(=O)N(NC(=O)c2ccc3c(c2C)OB(O)CCC3)C(C)(C)C)c1 [Cpd. No. 69] | 203 | – | – |
| CCC[C@@H](N(NC(=O)c1ccc2c(c1C)OB(O)CCC2)C(=O)c1cc(C)cc(C)c1)C(C)(C)C [Cpd. No. 70, (R)—N′-(3,5-dimethylbenzoyl)-N′-(2,2-dimethylhexan-3-yl)-2-hydroxy-9-methyl-2,3,4,5-tetrahydrobenzo[f][1,2]oxaborepine-8-carbohydrazide] | 40.6 | – | – |
| Cc1cc(C)cc(C(=O)N(NC(=O)c2ccc(B(O)O)cc2C(C)C)C(C)(C)C)c1 [compound 11] | 14100 | – | – |
| CC[C@@H](N(NC(=O)c1ccc2c(c1)B(O)OC2)C(=O)c1cc(C)cc(C)c1)C(C)(C)C [compound 52] | 287 | – | – |
| Cc1cc(C)cc(C(=O)N(NC(=O)c2ccc3c(c2C)OCCOB3O)C(c2ccccc2)C(C)(C)C)c1 (racemic) [Cpd. No. 83, N′-(2,2-dimethyl-1-phenylpropyl)-N′-(3,5-dimethylbenzoyl)-1-hydroxy-6-methyl-3,4-dihydro-1H-benzo[c][1,5,2]dioxaborepine-7-carbohydrazide] | 65.9 | – | – |
| CCCCB1OCc2ccc(C(=O)NN(C(=O)c3ccccc3)C(C)(C)C)c(F)c21 [Cpd. No. 64, N′-benzoyl-N′-(tert-butyl)-1-butyl-7-fluoro-1,3-dihydrobenzo[c][1,2]oxaborole-6-carbohydrazide] | > 25000 | – | – |
| Cc1cc(C)cc(C(=O)N(CC(C)(C)C)NC(=O)c2ccc3c(c2C)OCCOB3O)c1 [compound 71] | 430 | – | – |
| CCC[C@@H](N(NC(=O)c1ccc(CCCB(O)O)c(OC)c1C)C(=O)c1cc(C)cc(C)c1)C(C)(C)C [Cpd. No. 27, (R)-(3-(4-(2-(3,5-dimethylbenzoyl)-2-(2,2-dimethylhexan-3-yl)hydrazinecarbonyl)-2-methoxy-3-methyl-phenyl)propyl)boronic acid] | 270 | – | – |
| Cc1cc(C)cc(C(=O)N(NC(=O)c2cccc(B3OC(C)(C)C(C)(C)O3)c2C)C(C)(C)C)c1 [compound 43] | 1420 | – | – |
| CCC[C@@H](N(NC(=O)c1ccc([B-](F)(F)F)cc1F)C(=O)c1cc(C)cc(C)c1)C(C)(C)C [Cpd. No. 93, potassium (R)-(4-(2-(3,5-dimethylbenzoyl)-2-(2,2-dimethylhexan-3-yl)hydrazine-1-carbonyl)-3-fluorophenyl)trifluoroborate] | – | 66.8 | 122 |
| CCC[C@@H](N(NC(=O)c1ccc(CCCB2OC(C)(C)C(C)(C)O2)c(OC(F)F)c1C)C(=O)c1cc(C)cc(C)c1)C(C)(C)C [compound 30] | 50.8 | – | – |
| CCC(CF)N(NC(=O)c1ccc2c(c1C)OCCOB2O)C(=O)c1cc(C)cc(C)c1 (racemic) [Cpd. No. 82] | 2610 | – | – |

| SMILES | EC50 [1] [nM] | EC50 [2] [nM] | EC50 [3] [nM] |
| --- | --- | --- | --- |
| CC[C@H](N(NC(=O)c1ccc2c(c1)B(O)OC2)C(=O)c1cc(C)cc(C)c1)C(C)(C)C [compound 53] | 1000 | – | – |
| Cc1cc(C)cc(C(=O)N(NC(=O)c2ccc3c(c2F)COB3O)C(C)(C)C)c1 [Cpd. No. 65, N′-(tert-butyl)-N′-(3,5-dimethylbenzoyl)-4-fluoro-1-hydroxy-1,3-dihydrobenzo[c][1,2]oxaborole-5-carbohydrazide] | 3180 | – | – |
| CC[C@@H](N(NC(=O)c1ccc(B(O)O)cc1F)C(=O)c1cc(C)cc(C)c1)C(C)(C)C [Cpd. No. 85, (R)-(4-(2-(3,5-dimethylbenzoyl)-2-(2,2-dimethylpentan-3-yl)hydrazine-1-carbonyl)-3-fluorophenyl)boronic acid] | – | 69.4 | 66.6 |
| [2H]C([2H])([2H])c1cc(C(=O)N(NC(=O)c2ccc3c(c2F)B(O)OC3)[C@H](CC)C(C)(C)C)cc(C([2H])([2H])[2H])c1 [compound 60] | 123 | – | – |
| CCC(N(NC(=O)c1ccc2c(c1)B(O)OC2)C(=O)c1cc(C)cc(C)c1)C(C)(C)C (racemic) [Cpd. No. 51] | 432 | – | – |
| CCC[C@@H](N(NC(=O)c1cccc(B(O)O)c1F)C(=O)c1cc(C)cc(C)c1)C(C)(C)C [Cpd. No. 6] | 92.7 | – | – |
| CC[C@@H](N(NC(=O)c1ccc2c(c1C)OCCNB2O)C(=O)c1cc(C)cc(C)c1)C(C)(C)C [Cpd. No. 92, (R)-N′-(3,5-dimethylbenzoyl)-N′-(2,2-dimethylpentan-3-yl)-1-hydroxy-6-methyl-1,2,3,4-tetrahydrobenzo[f][1,4,5]oxazaborepine-7-carbohydrazide] | – | 187 | 116 |
| Cc1cc(Cl)cc(C(=O)N(CC(C)(C)C)NC(=O)c2ccc3c(c2C)OCCOB3O)c1 [compound 72] | 443 | – | – |
| [2H]C([2H])([2H])c1cc(C(=O)N(NC(=O)c2ccc3c(c2F)COB3O)C(C)(C)C)cc(C([2H])([2H])[2H])c1 [Cpd. No. 66, N′-(3,5-bis(methyl-d3)benzoyl)-N′-(tert-butyl)-4-fluoro-1-hydroxy-1,3-dihydrobenzo[c][1,2]oxaborole-5-carbohydrazide] | 3270 | – | – |
| CCC[C@@H](N(NC(=O)c1ccc(CCCB(O)O)c(OC(F)F)c1C)C(=O)c1cc(C)cc(C)c1)C(C)(C)C [Cpd. No. 28] | 57.7 | – | – |
| Cc1cc(C)cc(C(=O)N(NC(=O)c2ccc(B(O)O)cc2)C(C)(C)C)c1 [Cpd. No. 7] | 1010 | – | – |
| Cc1cc(C)cc(C(=O)N(NC(=O)c2ccc(B(O)O)cc2Cl)C(C)(C)C)c1 [compound 21] | 1630 | – | – |
| CCOCc1ccc(C(=O)NN(C(=O)c2cc(C)cc(C)c2)[C@H](CC)C(C)(C)C)c(F)c1B(O)O [compound 90, (R)-(3-(2-(3,5-dimethylbenzoyl)-2-(2,2-dimethylpentan-3-yl)hydrazine-1-carbonyl)-6-(ethoxymethyl)-2-fluorophenyl)boronic acid] | – | 389 | ~266 |
| CC[C@@H](N(NC(=O)c1ccc(COC)c(B(O)O)c1F)C(=O)c1cc(C)cc(C)c1)C(C)(C)C [Cpd. No. 86, (R)-(3-(2-(3,5-dimethylbenzoyl)-2-(2,2-dimethylpentan-3-yl)hydrazine-1-carbonyl)-2-fluoro-6-(methoxymethyl)phenyl)boronic acid] | – | 48.8 | 74.5 |
| CC[C@@H](N(NC(=O)c1ccc(B(O)O)cc1Cl)C(=O)c1cc(C)cc(C)c1)C(C)(C)C [compound 20] | 183 | – | – |
| [2H]C([2H])([2H])c1cc(C(=O)N(NC(=O)c2ccc(B(O)O)cc2F)[C@H](CC)C(C)(C)C)cc(C([2H])([2H])[2H])c1 [compound 15] | 52.3 | – | – |
| CCC(N(NC(=O)c1cccc(OC)c1C)C(=O)c1cccc(B(O)O)c1)C(C)(C)C (racemic) [compound 32] | 2880 | – | – |
| CCC(C)(C)N(NC(=O)c1ccc2c(c1C)OCCOB2O)C(=O)c1cc(C)cc(C)c1 [compound 76] | 358 | – | – |
